Laboratory results from PubChem BioAssay AID504610 (National Center for Advancing Translational Sciences (NCATS), 2011).

Test system: mouse plasma stability, LC-MS/MS, 48 h
Test: Inhibitors of 12-hLO: Mouse Plasma Stability Profiling
Details: at 2 µM; hits give high values
From the text: Assay Provider: Holman, T.R., University of California, Santa Cruz Grant #: MH08128301 Screening Center PI: Austin, C.P. Screening Center: NIH Chemical Genomics Center [NCGC] Human lipoxygenase 12hLO is a member of the closely related lipoxygenase family of enzymes which catalyze the site-specific oxidation of arachidonic acid to various hormone precursor molecules and as such is a candidate for drug development in a variety of disease areas, such as cancer and inflammation. After qHTS, hits were confirmed in follow-up assays, and leads were optimized through SAR. The resulting lead compound was further characterized through a battery ADME-Tox experiments, and this assay describes its stability in mouse plasma. The stability of the lead compound in […] is tested because this parameter has a significant impact on many ADME-concerned properties of drugs, such as uptake, distribution, transport, and eventually bioavailability.
2microM of compound is incubated in PBS buffer at pH 7; the reference compound is procaine. Compounds are incubated at 37 deg C for the pre-determined time periods and the when aliquots are removed. Samples are analyzed with LC-MS/MS.

percent remaining: 98.3%
SMILES: CC(=O)NC(c1cccs1)c1cc(Br)c2cccnc2c1O (stereo unspecified)
